Measurements taken from patent publication US20240018132A1, “5-HYDROXY-1,4-NAPHTHALENEDIONE FOR USE IN THE TREATMENT OF CANCER” (GODAVARI BIOREFINERIES LIMITED, priority 2020, published 2024).

Assays:
PC3 [1] = test: In vitro antiproliferative assay (MTT assay), prostate cancer cell line; assay type: cell-based; settings: Homo sapiens, PC-3, 48 h, MTT assay, prostate cancer PC3, 48 hrs drug incubation
Method: (§1) MTT assay is a simple and sensitive assay where, metabolic reducing activity of the cells is measured. The increase of this activity in time is taken as a parameter of cell growth. If treatment with a drug impairs this increase, the action is a consequence of growth inhibition, cell killing or both. […] All cell lines were cultured in a 37° C. incubator with a 5% CO2 environment. Compounds were dissolved in DMSO with a concentration of 0.1M (stock solution). Cells were seeded into 96-well plates at suitable plating efficiency.
(§2) Following plating efficiencies were standardized for MTT assay:
(§3) In the MTT procedure, the cells were plated in 96 well plates as per predetermined plating efficiency (Table1). The plates were then incubated for 24 hrs in 5% CO2 atmosphere at 37° C. Appropriate concentrations of the drugs were then added to the plate and further incubation was carried out for 48 hrs (in 5% CO2 atmosphere at 37° C.). The assay plate was then centrifuged twice at 3000 rpm for 3 mins and supernatant was then discarded. 100 ul of MTT solution (0.5 mg/ml) was then added to each well of the plate and it was further incubated for 4 hrs (in 5% CO2 atmosphere at 37° C.) Following 4 hr incubation, the plate was then centrifuged twice, and supernatant was aspirated off very carefully. 200 ul of DMSO was then added to each well to solubilize. MTT crystals and mixed well by shaking the plate. XY graph of log percent viability was then plotted against log drug concentration.

MDAMB231 [2] = test: In vitro antiproliferative assay (MTT assay), breast cancer cell line; assay type: cell-based; settings: Homo sapiens, MDA-MB-231, 48 h, MTT assay, breast cancer MDAMB231, 48 hrs drug incubation
Method: as §1, §2, §3

MDAMB231 [3] = test: In vitro sphere-forming assay (cancer stem cells), Mammosphere media; settings: for 3D sphere count of MDAMB231: Mammosphere media, 2000 cells/well, n = 6 ± S.D
PC3 [4] = test: In vitro sphere-forming assay (cancer stem cells), Prostosphere media; settings: for 3D sphere count of PC3: Prostosphere media, 2000 cells/well, n = 6 ± S.D
Method: In Vitro Sphere-forming Assay: Sphere assay measures the ability of cancer stem cells (CSCs) to form spheres in specially designed serum-free medium.
Prostosphere Media Preparation (For 100 mL):1 g methyl cellulose autoclaved with magnetic stirrer, 100 mL plain media (Prostate Epithelial Basal Medium) was added and dissolved, under magnetic stirring. After complete dissolution, Insulin-40 μL, B27-2 mL, EGF-80 μL, Penstrep-1 ml was added.
Procedure—The cells were trypsinised and made into single-cell suspension by passing through cell strainers (100 μl and 40 μl, respectively), The cells were diluted at a concentration of 2000 cells/100 μL and suspended in either Mammosphere (for breast cell lines) or Prostosphere (for prostate cell lines). 100 μL of this suspension was added into each well of 96-well suspension plates and incubated at 37° C., 5% CO2 for 24 hrs. Appropriate concentrations of the drugs (2 μL) were added into respective wells with 100 μL of stem cell culture medium. Plates were incubated at 37° C., 50 CO2 for 72 hrs. After incubation, 2.5 μL of the respective drug concentration and 50 μL of stem cell culture medium were added into each well and the plates were further incubated at 37° C., 50% CO2 for 72 hrs. 3 μL of the respective drug concentration was added with 50 μL of stem cell culture medium again after incubation and plates were reincubated for 72 hrs at 37° C., 50 CO2. Number of primary spheres formed for each concentration were counted. The spheres were converted to 0 viability of spheres compared to untreated (Growth Control with DMSO, GCD).

Human lymphocytes = test: Lymphocyte assay (MTT on normal cells); assay type: cell-based; settings: Lymphocyte; human peripheral blood lymphocytes, MTT procedure
Method: Human lymphocytes were isolated from the peripheral blood. A pure population of lymphocytes was obtained based on differential centrifugation, in which diluted defibrinated blood was layered on a solution of sodium diatrizoate and polysucrose (HiSep LSM 1077) and centrifuged at low speeds for 30 mins.
Procedure: The separation of lymphocytes from fresh defibrinated blood was performed by the procedure described below: • 1. Diluted defibrinated fresh blood was overlaid gradually on (HiSeP LSM1077) and centrifuged at low speed for 30 mins. • 2. The lymphocyte layer (the buffy coat) was carefully removed in a new collection tube. • 3. The buffy coat was given another wash, by the diluent buffer Dulbecco's phosphate buffered saline (D.P.B.S) • 4. The supernatant was discarded and the pellet was resuspended in D.P.B.S. • 5. The viability of cells was checked by Haemocytometer. • 6. Cells with purity and viability of more than 95% were taken for the experiment. • 7. Purified lymphocytes were diluted at a concentration of 0.7 million/ml with sterile D.P.B.S and MTT procedure was performed exactly as described earlier.

[5] = Homo sapiens, MDA-MB-231, read-out: % Viability of spheres (MDAMB231)
[6] = Homo sapiens, PC-3, read-out: % Viability of spheres (PC3)

Row | Compound | IC50 (PC3 [1]) [µM] | IC50 (MDAMB231 [2]) [µM] | viability at 0.025 µM (MDAMB231 [3]; [5]) [%] | viability at 0.25 µM (MDAMB231 [3]; [5]) [%] | viability at 2.5 µM (MDAMB231 [3]; [5]) [%] | viability at 25 µM (MDAMB231 [3]; [5]) [%] | 3D sphere count of MDAMB231 (MDAMB231 [3]; drug 0.025 uM) | 3D sphere count of MDAMB231 (MDAMB231 [3]; drug 0.25 uM) | 3D sphere count of MDAMB231 (MDAMB231 [3]; drug 2.5 uM) | 3D sphere count of MDAMB231 (MDAMB231 [3]; drug 25 uM) | viability at 0.025 µM (PC3 [4]; [6]) [%] | viability at 0.25 µM (PC3 [4]; [6]) [%] | viability at 2.5 µM (PC3 [4]; [6]) [%] | viability at 25 µM (PC3 [4]; [6]) [%] | 3D sphere count of PC3 (PC3 [4]; drug 0.025 uM) | 3D sphere count of PC3 (PC3 [4]; drug 0.25 uM) | 3D sphere count of PC3 (PC3 [4]; drug 2.5 uM) | 3D sphere count of PC3 (PC3 [4]; drug 25 uM) | viability at 0.0025 µM (MDAMB231 [3]; [5]) [%] | 3D sphere count of MDAMB231 (MDAMB231 [3]; drug 0.0025 uM) | further results
1 | O=C1C(c2ccc3c(c2)OCO3)=CC(=O)c2c(OCCN3CCOCC3)cccc21 [Formula 1, 5-(2-morpholinoethoxy)-2-(benzo[d][1,3]dioxol-6-yl)naphthalene-1,4-dione] | 0.579 | 0.656 | 83 | 62 | 44 | 31 | 64(±5) | 48(±4) | 34(±4) | 24(±4) | 80 | 62 | 45 | 30 | 65(±3) | 51(±3) | 37(±3) | 25(±3) |  |  | viability at 250 µM (MDAMB231 [3]; [5]): 13%; 3D sphere count of MDAMB231 (MDAMB231 [3]; drug 250 uM): 10(±2); viability at 250 µM (PC3 [4]; [6]): 16%; 3D sphere count of PC3 (PC3 [4]; drug 250 uM): 13(±3); IC50 (Human lymphocytes): 1.49 µM
2 | O=C1C(Oc2ccc(F)cc2F)=CC(=O)c2c(OCCN3CCOCC3)cccc21 [Formula 74] | 0.225 | 0.109 | 48 | 35 | 27 | 12 | 39(±3) | 29(±3) | 22(±4) | 10(±2) | 56 | 41 | 27 | 17 | 45(±2) | 36(±4) | 24(±4) | 15(±3) | 73 | 60(±3) | viability at 0.0025 µM (PC3 [4]; [6]): 73%; 3D sphere count of PC3 (PC3 [4]; drug 0.0025 uM): 64(±6)
3 | O=C1C(Oc2ccc(F)cc2)=CC(=O)c2c(OCCN3CCOCC3)cccc21 [Formula 75, 5-(2-morpholinoethoxy)-2-(4-fluorophenoxy) naphthalene-1,4-dione] | 0.306 | 0.566 | 56 | 45 | 32 | 17 | 45(±3) | 36(±4) | 26(±3) | 14(±3) | 57 | 47 | 33 | 20 | 46(±4) | 38(±3) | 27(±3) | 16(±2) | 80 | 64(±3) | viability at 0.0025 µM (PC3 [4]; [6]): 82%; 3D sphere count of PC3 (PC3 [4]; drug 0.0025 uM): 66(±4)
4 | O=C1C(Oc2ccc(F)c(F)c2)=CC(=O)c2c(OCCN3CCOCC3)cccc21 [Formula 76] | 0.324 | 2.48 | 67 | 56 | 40 | 29 | 61(±2) | 51(±3) | 36(±3) | 26(±4) | 72 | 55 | 38 | 28 | 58(±4) | 44(±4) | 31(±3) | 23(±3) | 82 | 74(±3) | viability at 0.0025 µM (PC3 [4]; [6]): 86%; 3D sphere count of PC3 (PC3 [4]; drug 0.0025 uM): 69(±3)
